Test results taken from ChEMBL document CHEMBL5210307, “Affinity Biochemical Literature for EUbOPEN Chemogenomics Library wave 3” (2023).
Values belong to the molecule of their own block, whether it stands above or below them.

Tests used:
[1] = target: Nucleosome-remodeling factor subunit BPTF (Homo sapiens, UniProt Q12830); assay: Affinity Biochemical interaction (BioLayer Interferometry assay (BLI)) EUB0000254b BPTF; set-up: mode of action Negative control for NVS-BPTF-1, recommended concentration 1 uM
Integrin alpha-L = Integrin alpha-L (Homo sapiens, UniProt P20701); assay: Affinity Biochemical interaction (ITGAL binding assay (inhibition of LFA-1 binding to ICAM-1)) EUB0000549a ITGAL; set-up: mode of action Negative control for BI-1950, recommended concentration 100 nM
[2] = target: Peripheral plasma membrane protein CASK (Homo sapiens, UniProt O14936); assay: Affinity Biochemical interaction (Isothermal titration calorimetry (ITC)) EUB0000723a CASK; set-up: mode of action Inhibitor, recommended concentration 1 uM
[3] = target: Transient receptor potential cation channel subfamily M member 8 (Homo sapiens, UniProt Q7Z2W7); assay: Affinity Biochemical interaction (Enzymatic assay) EUB0000546a TRPM8; set-up: mode of action Negative control for PF-05105679, recommended concentration 1 uM
Protein ENL = Protein ENL (Homo sapiens, UniProt Q03111); assay: Affinity Biochemical interaction (HTRF-based inhibition assay) EUB0000732a MLLT1; set-up: mode of action Negative control for PFI-6, recommended concentration 1 uM
Protein AF-9 [4] = target: T1, Protein AF-9 (Homo sapiens, UniProt P42568); assay: Affinity Biochemical interaction (HTRF-based inhibition assay) EUB0000732a MLLT3; set-up: mode of action Negative control for PFI-6, recommended concentration 1 uM
T1 sequence (P42568 whole entry): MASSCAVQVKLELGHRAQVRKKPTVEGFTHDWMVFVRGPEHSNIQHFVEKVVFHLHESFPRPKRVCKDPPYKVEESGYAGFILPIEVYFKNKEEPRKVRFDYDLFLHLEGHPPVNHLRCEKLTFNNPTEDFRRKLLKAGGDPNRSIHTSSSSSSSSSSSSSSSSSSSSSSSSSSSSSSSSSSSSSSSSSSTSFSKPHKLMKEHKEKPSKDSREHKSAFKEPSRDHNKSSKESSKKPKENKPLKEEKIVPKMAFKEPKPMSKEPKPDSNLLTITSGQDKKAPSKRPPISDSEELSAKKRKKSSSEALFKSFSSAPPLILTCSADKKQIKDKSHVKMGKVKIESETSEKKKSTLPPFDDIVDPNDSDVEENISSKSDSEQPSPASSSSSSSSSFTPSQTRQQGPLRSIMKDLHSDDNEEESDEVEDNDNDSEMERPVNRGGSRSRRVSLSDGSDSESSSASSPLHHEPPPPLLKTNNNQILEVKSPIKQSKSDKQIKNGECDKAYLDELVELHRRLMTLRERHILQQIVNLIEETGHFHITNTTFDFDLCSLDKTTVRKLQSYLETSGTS

[5] = target: BMP-2-inducible protein kinase (Homo sapiens, UniProt Q9NSY1); assay: Affinity Biochemical interaction (Competition binding assay) EUB0000166b BMP2K; set-up: mode of action Negative control for SGC-AAK1-1, recommended concentration 1 uM
[6] = target: AP2-associated protein kinase 1 (Homo sapiens, UniProt Q2M2I8); assay: Affinity Biochemical interaction (Competition binding assay) EUB0000166b AAK1; set-up: mode of action Negative control for SGC-AAK1-1, recommended concentration 1 uM
[7] = target: Transient receptor potential cation channel subfamily A member 1 (Homo sapiens, UniProt O75762); assay: Affinity Biochemical interaction (FLIPR-based Ca2+ assay (activated by 30 µM AITC)) EUB0000308b TRPA1; set-up: mode of action Antagonist, recommended concentration 1 uM
[8] = target: Fatty-acid amide hydrolase 1 (Homo sapiens, UniProt O00519); assay: Affinity Biochemical interaction (Binding assay) EUB0000540a FAAH; set-up: mode of action Negative control for PF-04457845, recommended concentration 1 uM
[9] = target: RAC-alpha serine/threonine-protein kinase (Homo sapiens, UniProt P31749); assay: Affinity Biochemical interaction (HTFR assay) EUB0000721a AKT1
[10] = target: Protein farnesyltransferase subunit beta (Homo sapiens, UniProt P49356); assay: Affinity Biochemical interaction (Scintillation proximity assay (SPA)) EUB0000736a FNTB; set-up: mode of action Negative control for ABT-100, recommended concentration 1 uM
Protein AF-9 [11] = target: T1, Protein AF-9
Angiopoietin-1 receptor = Angiopoietin-1 receptor (Homo sapiens, UniProt Q02763); assay: Affinity Biochemical interaction (KdELECT (DiscoverX)) EUB0000703a TEK; set-up: mode of action Negative control for BAY-826, recommended concentration 100 nM
Collagenase 3 = Collagenase 3 (Homo sapiens, UniProt P45452); assay: Affinity Biochemical interaction (FRET assay) EUB0000727a MMP13; set-up: mode of action Negative control for BI-4394, recommended concentration 100 nM
Fatty acid synthase = Fatty acid synthase (Homo sapiens, UniProt P49327); assay: Affinity Biochemical interaction (Human FAS enzyme assay (measuring consumption of NADPH)) EUB0000738a FASN; set-up: mode of action Negative control for BI 99179, recommended concentration 1 uM
[12] = target: Histone acetyltransferase KAT2B (Homo sapiens, UniProt Q92831); assay: Affinity Biochemical interaction (BROMOscan assay (DiscoverX)) EUB0000218c KAT2B; set-up: mode of action Inhibitor, recommended concentration 1 uM
[13] = Affinity Biochemical interaction (FLIPR assay) EUB0000337aCl P2RY14
[14] = target: Sodium/hydrogen exchanger 1 (Homo sapiens, UniProt P19634); assay: Affinity Biochemical interaction (pHi change assay) EUB0000545a SLC9A1; set-up: mode of action Negative control for BI-9627, recommended concentration 1 uM
Sodium/hydrogen exchanger 1, sequence (P19634 whole entry): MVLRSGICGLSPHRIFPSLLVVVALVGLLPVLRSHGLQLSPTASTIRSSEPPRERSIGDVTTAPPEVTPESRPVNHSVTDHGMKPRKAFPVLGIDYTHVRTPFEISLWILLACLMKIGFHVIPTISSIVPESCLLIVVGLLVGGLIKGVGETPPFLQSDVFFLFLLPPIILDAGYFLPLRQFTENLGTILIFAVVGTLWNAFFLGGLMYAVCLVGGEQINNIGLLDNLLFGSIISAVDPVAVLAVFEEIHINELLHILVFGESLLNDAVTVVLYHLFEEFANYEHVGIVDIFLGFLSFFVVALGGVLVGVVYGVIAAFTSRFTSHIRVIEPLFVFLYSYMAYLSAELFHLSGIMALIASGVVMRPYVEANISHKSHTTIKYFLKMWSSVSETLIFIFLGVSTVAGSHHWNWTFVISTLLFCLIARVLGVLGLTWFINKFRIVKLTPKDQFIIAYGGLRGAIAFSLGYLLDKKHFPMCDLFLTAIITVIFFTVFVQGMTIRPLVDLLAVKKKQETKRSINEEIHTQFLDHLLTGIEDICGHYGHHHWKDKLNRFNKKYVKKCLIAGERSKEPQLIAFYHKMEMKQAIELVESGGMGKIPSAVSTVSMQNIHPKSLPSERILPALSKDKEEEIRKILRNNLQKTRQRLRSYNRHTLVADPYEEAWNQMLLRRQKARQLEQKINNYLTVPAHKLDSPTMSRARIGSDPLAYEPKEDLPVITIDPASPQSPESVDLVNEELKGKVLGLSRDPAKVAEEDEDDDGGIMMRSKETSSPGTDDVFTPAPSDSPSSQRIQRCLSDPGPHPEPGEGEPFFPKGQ

Transient receptor potential cation channel subfamily A member 1, sequence (O75762 whole entry): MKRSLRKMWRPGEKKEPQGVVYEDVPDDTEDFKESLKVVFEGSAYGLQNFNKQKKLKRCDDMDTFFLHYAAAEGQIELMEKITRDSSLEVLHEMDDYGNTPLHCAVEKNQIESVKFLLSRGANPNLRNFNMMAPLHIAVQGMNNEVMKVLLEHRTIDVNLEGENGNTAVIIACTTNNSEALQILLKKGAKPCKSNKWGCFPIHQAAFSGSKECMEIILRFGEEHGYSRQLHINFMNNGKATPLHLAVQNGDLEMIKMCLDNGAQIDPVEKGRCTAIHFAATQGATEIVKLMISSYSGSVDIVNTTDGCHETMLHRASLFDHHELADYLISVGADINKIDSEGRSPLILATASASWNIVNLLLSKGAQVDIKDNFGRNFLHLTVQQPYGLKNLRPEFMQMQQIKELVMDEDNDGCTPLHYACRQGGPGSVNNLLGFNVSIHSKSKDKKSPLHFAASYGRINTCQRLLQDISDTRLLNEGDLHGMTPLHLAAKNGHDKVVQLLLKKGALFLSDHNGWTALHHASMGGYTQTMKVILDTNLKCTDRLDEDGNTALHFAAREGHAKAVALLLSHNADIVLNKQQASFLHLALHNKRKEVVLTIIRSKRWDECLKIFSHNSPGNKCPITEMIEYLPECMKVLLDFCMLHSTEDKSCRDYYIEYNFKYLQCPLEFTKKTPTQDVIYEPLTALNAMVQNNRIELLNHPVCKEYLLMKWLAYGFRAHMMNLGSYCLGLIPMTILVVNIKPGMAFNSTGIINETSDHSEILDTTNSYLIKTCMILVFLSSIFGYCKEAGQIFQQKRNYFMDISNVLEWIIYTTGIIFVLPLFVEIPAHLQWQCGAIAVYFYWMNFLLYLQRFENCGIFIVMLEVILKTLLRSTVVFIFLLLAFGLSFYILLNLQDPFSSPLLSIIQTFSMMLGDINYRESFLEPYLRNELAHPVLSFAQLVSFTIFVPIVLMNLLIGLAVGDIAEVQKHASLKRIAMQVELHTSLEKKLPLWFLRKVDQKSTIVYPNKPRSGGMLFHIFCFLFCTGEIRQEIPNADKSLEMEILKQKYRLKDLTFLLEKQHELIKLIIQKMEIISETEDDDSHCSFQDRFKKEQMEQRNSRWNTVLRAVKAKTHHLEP
Protein ENL, sequence (Q03111 whole entry): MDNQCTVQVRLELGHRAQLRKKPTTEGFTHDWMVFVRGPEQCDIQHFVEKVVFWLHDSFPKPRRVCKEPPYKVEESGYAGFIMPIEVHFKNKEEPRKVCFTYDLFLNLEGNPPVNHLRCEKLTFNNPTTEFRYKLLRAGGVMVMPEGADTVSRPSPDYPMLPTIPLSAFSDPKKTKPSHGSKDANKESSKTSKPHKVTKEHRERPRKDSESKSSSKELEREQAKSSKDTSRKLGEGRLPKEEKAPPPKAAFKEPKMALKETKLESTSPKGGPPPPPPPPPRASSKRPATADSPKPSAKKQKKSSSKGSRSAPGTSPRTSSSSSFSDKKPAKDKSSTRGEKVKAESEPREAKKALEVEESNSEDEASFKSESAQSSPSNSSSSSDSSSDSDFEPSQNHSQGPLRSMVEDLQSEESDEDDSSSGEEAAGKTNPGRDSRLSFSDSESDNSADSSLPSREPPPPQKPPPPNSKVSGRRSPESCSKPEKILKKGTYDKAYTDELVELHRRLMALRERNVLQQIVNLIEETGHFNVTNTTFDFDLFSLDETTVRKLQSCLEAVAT
Protein farnesyltransferase subunit beta, sequence (P49356 whole entry): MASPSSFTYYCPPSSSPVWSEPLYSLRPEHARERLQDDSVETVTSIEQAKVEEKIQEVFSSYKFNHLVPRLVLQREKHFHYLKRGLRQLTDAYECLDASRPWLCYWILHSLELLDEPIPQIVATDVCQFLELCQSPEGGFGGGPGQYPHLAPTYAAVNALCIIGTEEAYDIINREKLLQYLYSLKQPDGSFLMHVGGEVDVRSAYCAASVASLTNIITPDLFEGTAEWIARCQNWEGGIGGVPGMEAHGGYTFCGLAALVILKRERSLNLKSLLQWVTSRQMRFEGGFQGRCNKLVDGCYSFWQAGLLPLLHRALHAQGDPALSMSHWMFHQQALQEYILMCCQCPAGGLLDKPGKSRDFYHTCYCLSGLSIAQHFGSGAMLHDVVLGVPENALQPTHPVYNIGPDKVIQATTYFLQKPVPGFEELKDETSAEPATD
Histone acetyltransferase KAT2B, sequence (Q92831 whole entry): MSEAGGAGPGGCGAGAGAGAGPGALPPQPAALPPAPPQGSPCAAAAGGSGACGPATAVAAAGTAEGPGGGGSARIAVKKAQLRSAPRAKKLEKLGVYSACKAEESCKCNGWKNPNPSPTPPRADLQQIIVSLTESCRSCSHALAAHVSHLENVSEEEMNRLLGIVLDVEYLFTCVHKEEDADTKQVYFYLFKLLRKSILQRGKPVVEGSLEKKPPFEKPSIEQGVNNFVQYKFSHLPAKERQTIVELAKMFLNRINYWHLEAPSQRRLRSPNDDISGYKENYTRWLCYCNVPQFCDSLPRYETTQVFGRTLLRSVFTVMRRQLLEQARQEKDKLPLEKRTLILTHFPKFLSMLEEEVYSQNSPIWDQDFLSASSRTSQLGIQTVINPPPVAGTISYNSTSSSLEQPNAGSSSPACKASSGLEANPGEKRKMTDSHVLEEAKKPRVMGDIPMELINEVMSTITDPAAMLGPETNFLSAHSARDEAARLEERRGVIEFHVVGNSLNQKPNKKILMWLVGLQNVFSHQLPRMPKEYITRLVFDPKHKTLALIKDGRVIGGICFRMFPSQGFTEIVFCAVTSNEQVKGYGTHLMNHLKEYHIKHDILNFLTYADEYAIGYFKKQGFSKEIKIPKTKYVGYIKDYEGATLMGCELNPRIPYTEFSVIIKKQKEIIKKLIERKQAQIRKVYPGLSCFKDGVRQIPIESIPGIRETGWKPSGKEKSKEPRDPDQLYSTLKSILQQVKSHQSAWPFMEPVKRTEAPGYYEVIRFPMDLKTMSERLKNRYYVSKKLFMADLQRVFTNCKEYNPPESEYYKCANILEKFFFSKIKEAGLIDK
Peripheral plasma membrane protein CASK, sequence (O14936 whole entry): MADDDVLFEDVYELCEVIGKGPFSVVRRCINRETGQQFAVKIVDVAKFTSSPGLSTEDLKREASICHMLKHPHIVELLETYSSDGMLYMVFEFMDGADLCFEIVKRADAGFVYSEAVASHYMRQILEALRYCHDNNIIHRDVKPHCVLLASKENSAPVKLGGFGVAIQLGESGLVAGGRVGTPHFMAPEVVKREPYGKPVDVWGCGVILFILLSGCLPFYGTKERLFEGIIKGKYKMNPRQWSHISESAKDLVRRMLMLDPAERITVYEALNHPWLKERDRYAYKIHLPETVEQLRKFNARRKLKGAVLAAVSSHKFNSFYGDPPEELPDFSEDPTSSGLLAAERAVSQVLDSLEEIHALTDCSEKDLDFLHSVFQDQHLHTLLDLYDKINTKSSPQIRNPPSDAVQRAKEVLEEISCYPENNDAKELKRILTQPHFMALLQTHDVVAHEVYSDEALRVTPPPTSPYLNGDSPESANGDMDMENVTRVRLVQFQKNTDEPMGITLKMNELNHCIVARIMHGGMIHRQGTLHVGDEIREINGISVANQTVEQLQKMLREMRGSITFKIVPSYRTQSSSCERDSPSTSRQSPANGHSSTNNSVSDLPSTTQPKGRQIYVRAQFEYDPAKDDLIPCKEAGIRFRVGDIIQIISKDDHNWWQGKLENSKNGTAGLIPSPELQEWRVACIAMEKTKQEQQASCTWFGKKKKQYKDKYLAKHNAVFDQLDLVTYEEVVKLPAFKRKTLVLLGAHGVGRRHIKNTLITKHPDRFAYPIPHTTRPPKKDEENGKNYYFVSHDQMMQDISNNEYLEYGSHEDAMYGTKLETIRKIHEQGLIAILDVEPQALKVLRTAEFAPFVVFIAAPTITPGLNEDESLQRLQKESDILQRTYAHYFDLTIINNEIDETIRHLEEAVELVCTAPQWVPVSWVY

Structure (SMILES): Cc1c(Nc2ccc(S(=O)(=O)N3CCN(C)CC3)cc2F)nc2ccc(Nc3cnn(C4CC4)c3)cn2c1=O
Kd [1]: 1.67 µM

Structure (SMILES): O=C(NCCCN1CCOC1=O)c1cnc(NCc2cc(Br)ccc2Br)nc1NC1CCCC1
Kd [2]: 0.022 µM

Structure (SMILES): CN(C)C(=O)c1ccc(-c2cc(C(=O)N(C)C3CCCC3)no2)cc1O
IC50 (Protein ENL): > 30 µM | IC50 (Protein AF-9 [4]): > 30 µM

Structure (SMILES): CC(C)C(=O)Nc1n[nH]c2cc(-c3cccc(NS(=O)(=O)C4CC4)c3)ccc12
Kd [5]: > 10 µM | Kd [6]: 8.8 µM

Structure (SMILES): Clc1cccc(-c2nnnn2Cc2cccnc2)c1Cl
IC50 [7]: 0.067 µM

Structure (SMILES): O=C(Nc1cccnn1)N1CC(C/C=C/c2cncc(Oc3ccc(C(F)(F)F)cn3)n2)C1
IC50 [8]: > 100 µM

Structure (SMILES): Cn1cncc1[C@@](O)(COc1ccc(C#N)cc1-c1ccc(OC(F)(F)F)cc1)c1ccc(C#N)cc1 [A-108]
IC50 [10]: > 100 µM

Structure (SMILES): CN(C)C(=O)c1ccc(-c2cc(C(=O)N[C@@H]3CCc4ccccc43)no2)cc1O
IC50 (Protein AF-9 [11]): 0.16 µM

Structure (SMILES): Cc1nnc2c3ccccc3c(N[C@@H](C)[C@H](c3ccccc3)N(C)C)nn12
IC50 [12]: 0.048 µM

Structure (SMILES): CC(=O)N1CCC(c2ccc(C(=O)NC3=NCCN3)cc2C(F)(F)F)CC1 [BI 0054]
IC50 [14]: > 10 µM

Continued, values first:

Kd (Integrin alpha-L): > 1 µM
Structure (SMILES): C[C@@]1(Cc2ccc(C#N)cc2)C(=O)N(c2cc(Cl)cc(Cl)c2)c2ncc(C(=O)NC3(c4nc(C5CCC5)no4)CC3)n21 [BI 9446]

IC50 [3]: > 10 µM
Structure (SMILES): C[C@H](c1ccc(F)cc1)N(Cc1ccc(Cl)c(C(=O)O)c1)C(=O)c1cnc2ccccc2c1 [PF-05257137]

IC50 [9]: 9.2 µM
Structure (SMILES): C=CC(=O)Nc1ccc2[nH]c(=O)n(C3CCN(C(=O)c4ccc(-c5nc6cc[nH]c(=O)c6cc5-c5ccccc5)cc4)CC3)c2c1

Kd (Angiopoietin-1 receptor): > 20 µM
Structure (SMILES): Cc1cc(NC(=O)c2cccc(S(F)(F)(F)(F)F)c2)cc(-n2ccn3nc(-c4cccnc4)cc23)c1 [BAY-309]

IC50 (Collagenase 3): > 26 µM
Structure (SMILES): Cn1nc(C(=O)NCc2ccc(C(=O)O)cc2)cc1-c1ccc2[nH]ccc2c1 [BI 4395]

IC50 (Fatty acid synthase): > 3 µM
Structure (SMILES): CCC(=O)N[C@@H]1CC[C@H](C(=O)N(C)c2ccc(-c3nc4ccccc4o3)cc2)C1 [BI 99990]

IC50 [13]: 4.38 µM
Structure (SMILES): Cc1c(C(=O)O)cc(-c2ccc(C3CCNCC3)cc2)c2ccc(-c3ccc(C(F)(F)F)cc3)cc12
